Measurements published in patent US4450269A, “Mono-5-substituted-3-chloro-4H-1,2,6-thiadiazin-4-one antifungal agents” (FMC Corporation, priority 1980, dated 1984).

Legend:
[1] = test system: Botrytis cinerea; assay: Spore germination test; assay type: cell-based; settings: BC, 48 hours
Protocol: (§1) The test chemical was dissolved or suspended in acetone in an amount such that 0.8 ml of the resulting suspension or solution, mixed with 40 ml water agar produced a water agar solution containing 40, 10, 2.5 and 1 ppm of test chemical. The resulting agar solution, at 50° C., was then divided equally between two sterile petri dishes, each having four separated quadrants, and allowed to solidify. […] quadrants of each dish were flooded with 0.1 ml of a spore suspension in sterile water. Spores of two pathogens, Erysiphe polygoni and Uromyes phaseoli, from infected plant leaves, were brushed on the remaining two quadrants. The tests were then incubated 48 hours, at 24° C.
(§2) Readings were then taken and the percentage of germinated spores calculated. From this percentage, a spore germination rating was assigned as follows: […]

[2] = test system: Venturia inaequalis; assay: Spore germination test; assay type: cell-based; settings: VI, 48 hours
Protocol: VI = Venturia inaequalis
as §1, §2

Row | Molecule | Spore Germination Rating ([1]; 1.0 ppm) | Spore Germination Rating ([1]; 2.5 ppm) | Spore Germination Rating ([1]; 10 ppm) | Spore Germination Rating ([1]; 40 ppm) | Spore Germination Rating ([2]; 1.0 ppm) | Spore Germination Rating ([2]; 2.5 ppm) | Spore Germination Rating ([2]; 10 ppm) | Spore Germination Rating ([2]; 40 ppm)
1 | 3-chloro-5-(bromophenoxy)-4H-1,2,6-thiadiazin-4-one [Compound 33] | 4 (80-100) | 3 (60-80) | 0 (0-10) | 0 (0-10) | 0 (0-10) | 0 (0-10) | 0 (0-10) | 0 (0-10)
2 | 3-chloro-5-[methylaminocarbonyloxy)phenoxyl]-4H-1,2,6-thiadiazin-4-one [Compound 36] | 4 (80-100) | 4 (80-100) | 4 (80-100) | 2 (40-60) |  |  |  | 
3 | O=c1c(Cl)nsnc1Oc1ccccc1 [Compound 2, 3-chloro-5-phenoxy-4H--1,2,6-thiadiazin-4-one] | 4 (80-100) | 4 (80-100) | 0 (0-10) | 0 (0-10) | 4 (80-100) | 2 (40-60) | 0 (0-10) | 0 (0-10)
4 | Cc1ccc(Oc2nsnc(Cl)c2=O)cc1 [Compound 3, 3-chloro-5-(4-methylphenoxy)-4H--1,2,6-thiadiazin-4-one] | 4 (80-100) | 4 (80-100) | 0 (0-10) | 0 (0-10) | 4 (80-100) | 4 (80-100) | 0 (0-10) | 0 (0-10)
5 | CC(C)(C)c1ccc(Oc2nsnc(Cl)c2=O)cc1 [Compound 4, 3-chloro-5-(4-tert-butylphnoxy)-4H--1,2,6-thiadiazin-4-one] | 4 (80-100) | 4 (80-100) | 4 (80-100) | 2 (40-60) | 4 (80-100) | 4 (80-100) | 0 (0-10) | 0 (0-10)
6 | COc1ccc(Oc2nsnc(Cl)c2=O)cc1 [Compound 5, 3-chloro-5-(4-methoxyphenoxy)4H--1,2,6-thiadiazin-4-one] | 4 (80-100) | 4 (80-100) | 1 (10-40) | 0 (0-10) | 3 (60-80) | 0 (0-10) | 0 (0-10) | 0 (0-10)
7 | CCCCOc1ccc(Oc2nsnc(Cl)c2=O)cc1 [Compound 6, 3-chloro-5-(4-n-butoxyphenoxy)-4H--1,2,6-thiadiazin-4-one] | 4 (80-100) | 4 (80-100) | 4 (80-100) | 4 (80-100) | 1 (10-40) | 0 (0-10) | 0 (0-10) | 0 (0-10)
8 | CCOC(=O)c1ccc(Oc2nsnc(Cl)c2=O)cc1 [Compound 7, 3-chloro-5-(4-ethoxycarbonylphenoxy)-4H--1,2,6-thiadiazin-4-one] | 4 (80-100) | 3 (60-80) | 2 (40-60) | 3 (60-80) | 0 (0-10) | 0 (0-10) | 0 (0-10) | 0 (0-10)
9 | CC(=O)Nc1ccc(Oc2nsnc(Cl)c2=O)cc1 [Compound 8, 5-(4-acetylaminophenoxy)-3-chloro-4H--1,2,6-thiadiazin-4-one] | 4 (80-100) | 4 (80-100) | 4 (80-100) | 4 (80-100) | 4 (80-100) | 3 (60-80) | 2 (40-60) | 0 (0-10)
10 | O=c1c(Cl)nsnc1Oc1ccc([N+](=O)[O-])cc1 [Compound 9, 3-chloro-5-(4-nitrophenoxy)-4H--1,2,6-thiadiazin-4-one] | 0 (0-10) | 0 (0-10) | 0 (0-10) | 0 (0-10) | 0 (0-10) | 0 (0-10) | 0 (0-10) | 0 (0-10)
11 | N#Cc1ccc(Oc2nsnc(Cl)c2=O)cc1 [Compound 10, 3-chloro-5-(4-cyanophenoxy)-4H--1,2,6-thiadiazin-4-one] | 2 (40-60) | 0 (0-10) | 0 (0-10) | 0 (0-10) | 0 (0-10) | 0 (0-10) | 0 (0-10) | 0 (0-10)
12 | O=c1c(Cl)nsnc1Oc1ccc(F)cc1 [Compound 11, 3-chloro-5-(4-fluorophenoxy)-4H--1,2,6-thiadiazin-4-one] | 4 (80-100) | 1 (10-40) | 0 (0-10) | 0 (0-10) | 4 (80-100) | 1 (10-40) | 0 (0-10) | 0 (0-10)
13 | O=c1c(Cl)nsnc1Oc1ccc(Cl)cc1 [Compound 12, 3-chloro-5-(4-chlorophenoxy)-4H--1,2,6-thiadiazin-4-one] | 0 (0-10) | 2 (40-60) | 0 (0-10) | 0 (0-10) | 1 (10-40) | 0 (0-10) | 0 (0-10) | 0 (0-10)
